Legend:
[1] = system: Calcium Channel Type L, Dihydropyridine; experiment: Radioligand binding assay, 3H Nitrendipine; set-up: species or system Wistar Rat; details: 10 μM; significance criteria ≧50% of max stimulation or inhibition
Experimental: (§1) In order to test the selectivity of compounds, various enzyme assays as well as radioligand binding assays were performed using numerous non-Edg receptor targets as listed below.
(§2) A radioligand binding assay was performed using adrenergic α1 according to the method of Greengrass and Bremner 1979, Eur. J. Pharmacol. 55:323–326. A radioligand binding assay was performed using adrenergic α2 according to the method of Boyajian and Leslie, 1987, J. Pharmacol. Exp. Ther. 241:1092–1098. A radioligand binding assay was performed using adrenergic β according to the method of Feve et al., 1994, Proc. Natl. Acad. Sci. USA 91:5677–5681. A radioligand binding assay was performed using angiotensin AT2 according to the method of Whitebread et al., 1991, Biochem. Biophys. Res. Comm. 181:1365–1371. A radioligand binding assay was performed using calcium channel Type L, dihydropyridine according to the method of Ehlert et al., 1982, Life Sci. 30:2191–2202. A radioligand binding assay was performed using dopamine D2L according to the method of Bunzo et al., 1988, Nature 336:783–787. A radioligand binding assay was performed using endothelin ETA according to the method of Mihara et al., 1994, J. Phrmacol. Exp Ther. 268:1122–1127. A radioligand binding assay was performed using histamine H1 Central according to the method of Hill et al., 1978, J. Neurochem. 31:997–1004. […]
(§3) Quantitation Method: Radioligand Binding […]

[2] = system: Adrenergic α2; experiment: Radioligand binding assay, 3H Rauwolscine; set-up: species or system Wistar rat; details: 10 μM; significance criteria ≧50% of max stimulation or inhibition
Experimental: as §1, §2, §3

[3] = system: Serotonin 5-HT1, non-selective; experiment: Radioligand binding assay, 3H Serotonin (5-HT) Trifluoroacetate; set-up: species or system Wistar rat; details: 10 μM; significance criteria ≧50% of max stimulation or inhibition
Experimental: as §1, §2, §3

[4] = system: Adrenergic α1, non-selective; experiment: Radioligand binding assay, 3H Prazosin; set-up: species or system Wistar Rat; details: 10 μM; significance criteria ≧50% of max stimulation or inhibition
Experimental: as §1, §2, §3

[5] = biological target: T1, Dopamine D2L (Homo sapiens, UniProt P14416); experiment: Radioligand binding assay, 3H Spiperone; details: 10 μM; significance criteria ≧50% of max stimulation or inhibition
T1 construct: expressed in transfected cells; host or cells: CHO cells
T1 sequence (P14416 whole entry): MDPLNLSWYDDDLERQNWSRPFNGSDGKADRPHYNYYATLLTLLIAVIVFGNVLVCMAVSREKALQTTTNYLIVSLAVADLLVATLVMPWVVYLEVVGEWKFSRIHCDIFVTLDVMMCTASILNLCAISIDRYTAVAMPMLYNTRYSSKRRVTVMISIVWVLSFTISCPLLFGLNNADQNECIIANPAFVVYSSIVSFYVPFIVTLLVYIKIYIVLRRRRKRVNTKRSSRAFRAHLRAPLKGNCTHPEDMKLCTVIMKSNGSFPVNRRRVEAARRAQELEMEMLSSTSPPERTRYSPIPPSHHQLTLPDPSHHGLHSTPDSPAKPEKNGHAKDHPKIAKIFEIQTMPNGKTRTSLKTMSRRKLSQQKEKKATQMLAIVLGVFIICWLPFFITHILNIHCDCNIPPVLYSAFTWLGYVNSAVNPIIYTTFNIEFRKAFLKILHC
Experimental: as §1, §2, §3

[6] = system: Adrenergic β; experiment: Radioligand binding assay, 3H Dihydroaplenolol; set-up: species or system Wistar rat; details: 10 μM; significance criteria ≧50% of max stimulation or inhibition
Experimental: as §1, §2, §3

[7] = biological target: T2, Endothelin ETA (Homo sapiens, UniProt P25101); experiment: Radioligand binding assay, 125I Endothelin; details: 10 μM; significance criteria ≧50% of max stimulation or inhibition
T2 construct: expressed in transfected cells; host or cells: CHO cells
T2 sequence (P25101 21-427): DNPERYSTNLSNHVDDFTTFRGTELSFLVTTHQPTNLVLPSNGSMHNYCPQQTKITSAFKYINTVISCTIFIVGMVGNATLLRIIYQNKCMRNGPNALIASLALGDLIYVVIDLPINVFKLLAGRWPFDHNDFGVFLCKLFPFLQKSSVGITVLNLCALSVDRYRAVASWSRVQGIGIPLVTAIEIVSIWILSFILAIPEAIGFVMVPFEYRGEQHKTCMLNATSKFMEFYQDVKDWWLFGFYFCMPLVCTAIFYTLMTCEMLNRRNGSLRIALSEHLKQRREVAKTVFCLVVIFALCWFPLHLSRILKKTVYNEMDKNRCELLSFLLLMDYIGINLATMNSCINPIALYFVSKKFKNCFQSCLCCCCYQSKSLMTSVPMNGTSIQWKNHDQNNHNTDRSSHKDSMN
Experimental: as §1, §2, §3

[8] = biological target: T3, Edg-5 (Homo sapiens, UniProt O95136); experiment: Intracellular calcium assay, S1P-stimulated, HTC cells expressing Edg-5; assay type: cell-based; details: concentrations as high as 20 µM
T3 construct: expressed in transfected cells; host or cells: HTC rat hepatoma cells
T3 sequence (O95136 whole entry): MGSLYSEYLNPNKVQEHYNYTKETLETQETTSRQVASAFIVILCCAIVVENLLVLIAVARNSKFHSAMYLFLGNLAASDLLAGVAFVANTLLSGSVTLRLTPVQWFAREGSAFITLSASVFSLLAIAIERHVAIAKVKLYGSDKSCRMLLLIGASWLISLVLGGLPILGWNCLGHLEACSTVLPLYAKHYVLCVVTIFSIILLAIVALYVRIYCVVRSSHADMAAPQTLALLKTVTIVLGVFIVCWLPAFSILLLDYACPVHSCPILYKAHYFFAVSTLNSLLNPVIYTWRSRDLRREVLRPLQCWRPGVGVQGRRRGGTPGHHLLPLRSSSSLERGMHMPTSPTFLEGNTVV

[9] = biological target: T4, Edg-4 (Homo sapiens, UniProt Q9HBW0); experiment: Intracellular calcium assay, LPA-stimulated, HTC cells expressing Edg-4; assay type: cell-based; details: concentrations as high as 20 µM
T4 construct: expressed in transfected cells; host or cells: HTC rat hepatoma cells
T4 sequence (Q9HBW0 whole entry): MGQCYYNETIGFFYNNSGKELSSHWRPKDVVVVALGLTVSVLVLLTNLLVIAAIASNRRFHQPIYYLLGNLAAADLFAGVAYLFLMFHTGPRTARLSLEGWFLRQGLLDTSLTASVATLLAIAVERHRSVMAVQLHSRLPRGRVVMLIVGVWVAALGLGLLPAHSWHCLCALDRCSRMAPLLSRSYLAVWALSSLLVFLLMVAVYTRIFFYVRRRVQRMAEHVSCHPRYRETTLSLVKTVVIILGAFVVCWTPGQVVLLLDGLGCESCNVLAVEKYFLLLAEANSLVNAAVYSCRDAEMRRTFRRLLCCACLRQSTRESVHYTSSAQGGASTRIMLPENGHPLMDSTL

## Cc1c(-c2ccccc2)nc2ccccc2c1C(=O)NCc1ccc(F)cc1 [Compound 101, 3-methyl-2-phenyl-quinoline-4-carboxylic acid 4-fluoro-benzylamide]
[1]
  activity in standard binding assay, Calcium Channel Type L, Dihydropyridine: no activity
[2]
  activity in standard binding assay, Adrenergic α2: no activity
[3]
  activity in standard binding assay, Serotonin 5-HT1, non-selective: no activity
[4]
  activity in standard binding assay, Adrenergic α1: no activity
[5]
  activity in standard binding assay, Dopamine D2L: no activity
[6]
  activity in standard binding assay, Adrenergic β: no activity
[7]
  activity in standard binding assay, Endothelin ETA: no activity
[8]
  inhibition of S1P-stimulated calcium increases, Edg-5: did not inhibit
[9]
  inhibition of LPA-stimulated calcium increases, Edg-4: did not inhibit

Reference: patent US7208502B2, “Methods of treating conditions associated with an Edg-3 receptor” (Maniv Energy Capital, priority 2002, dated 2007)
